Data reported in US11471509B2, “Compositions and methods relating to myomaker-induced muscle cell fusion” (The Board of Regents of the University of Texas System, priority 2013, dated 2022).
“Also recorded” adds a separate entry of the source.

How the values were obtained:
[1] = system: C2C12 myoblasts; assay: C2C12 myoblast fusion in the presence of actin inhibitors; assay type: cell-based; conditions: C2C12 cells infected with GFP or Myomaker virus, Cytochalasin D 0.3 μM, lantrunculin B 0.1 μM
[2] = at 78 weeks, cited from earlier work
[3] = cited from earlier work
[4] = infantile-onset Pompe disease, compared to untreated historical control population

Question: For `C=C1[C@@H](C)[C@H]2[C@H](Cc3ccccc3)NC(=O)[C@]23[C@H](OC(C)=O)/C=C/[C@@](C)(O)C(=O)[C@@H](C)C/C=C/[C@H]3[C@@H]1O` [cytochalasin D], which myoblast fusion [1] is on record?
Answer: completely blocked fusion; also recorded: abolished

Question: With `C/C1=C/C(=O)O[C@@H]2C[C@@H](CC[C@H](C)/C=C\CC1)O[C@@](O)([C@@H]1CSC(=O)N1)C2` [lantrunculin B, latrunculin B] as the compound, how does the myoblast fusion [1] read?
Answer: completely blocked fusion

Question: And the myoblast fusion ([1]; listed as latrunculin B)?
Answer: abolished

Question: For alglucosidase alfa [Myozyme], which “increase in percent predicted forced vital capacity” value ([2]; P=0.006 vs placebo) is on record?
Answer: 1.2%

Question: And the “increase in distance walked in six minutes” value ([2]; average, every other week for 18 months, baseline approximately 325 meters, P=0.03 vs placebo)?
Answer: approximately 25 meters

Question: What about the overall survival [3, 4] of the same compound?
Answer: clearly prolongs

Question: And the ventilator-free survival [3, 4]?
Answer: clearly prolongs

Question: And the side effects ([3]; intravenous infusion)?
Answer: fever, flushing, skin rash, increased heart rate and even shock
